Reference: PubChem BioAssay AID272 (DTP/NCI, 2004)
“And” between values parts separate entries of the source, which are not always exact repeats. Equal values may be shown once. Inconclusive results are not listed.

Tested on: Lewis lung carcinoma i.m., BDF1 mice, T/C %
Assay: NCI In Vivo Anticancer Drug Screen. Data for tumor model Lewis Lung Carcinoma (intramuscular) in B6D2F1 (BDF1) mice
Experimental: The antitumor activity of compounds was measured in mice bearing transplantable tumors. Survival or tumor size were measured and the results are expressed as the measurement made in the treated group (T) divided by the measurement made in the vehicle treated control group (C). The tumor model used in this assay is Lewis Lung Carcinoma (intramuscular) in B6D2F1 (BDF1) mice

[1] = endpoint: median survival time, dose: 3.12 mg/kg/injection, schedule: Q01DX011 (ip), vehicle: saline with Tween-80, higher = longer survival
[2] = endpoint: median survival time, dose: 6.25 mg/kg/injection, schedule: Q01DX011 (ip), vehicle: saline with Tween-80, higher = longer survival
[3] = endpoint: mean tumor weight (est.), dose: 25.0 mg/kg/injection, schedule: Q01DX011 (ip), vehicle: saline with Tween-80, higher = larger tumour
[4] = endpoint: median survival time, dose: 25.0 mg/kg/injection, schedule: Q01DX011 (ip), vehicle: saline with Tween-80, higher = longer survival

C[C@]12CC[C@@H]3c4ccc(O)cc4CC[C@H]3[C@@H]1C[C@@H](O)[C@@H]2O
T/C (endpoint: mean tumor weight, dose: 3.13 mg/kg/injection, schedule: Q01DX011 (ip), vehicle: saline with Tween-80, higher = larger tumour): 62 % of control
T/C (endpoint: median survival time, dose: 0.78 mg/kg/injection, schedule: Q01DX011 (ip), vehicle: saline with Tween-80, higher = longer survival): 108 % of control
T/C (endpoint: median survival time, dose: 1.56 mg/kg/injection, schedule: Q01DX011 (ip), vehicle: saline with Tween-80, higher = longer survival): 98 % of control
T/C [1]: 112 % of control
T/C [2]: 110 % of control

O=c1[nH]c(=O)n([C@H]2CCCO2)cc1F
T/C (endpoint: mean tumor weight (est.), dose: 39.0 mg/kg/injection, schedule: Q01DX011 (ip), vehicle: saline, higher = larger tumour): 112 % of control
T/C (endpoint: mean tumor weight (est.), dose: 65.0 mg/kg/injection, schedule: Q01DX011 (ip), vehicle: saline, higher = larger tumour): 40 % of control
T/C (endpoint: median survival time, dose: 25.0 mg/kg/injection, schedule: Q04DX004 (ip), vehicle: other, higher = longer survival): 112 % of control
T/C (endpoint: median survival time, dose: 39.0 mg/kg/injection, schedule: Q01DX011 (ip), vehicle: saline, higher = longer survival): 90 % of control
T/C (endpoint: median survival time, dose: 50.0 mg/kg/injection, schedule: Q04DX004 (ip), vehicle: other, higher = longer survival): 100 % of control
T/C (endpoint: median survival time, dose: 65.0 mg/kg/injection, schedule: Q01DX011 (ip), vehicle: saline, higher = longer survival): 119 % of control
T/C (endpoint: median survival time, dose: 100.0 mg/kg/injection, schedule: Q04DX004 (ip), vehicle: other, higher = longer survival): 100 % of control
T/C (endpoint: median survival time, dose: 200.0 mg/kg/injection, schedule: Q04DX004 (ip), vehicle: other, higher = longer survival): 103 % of control

C1CN1c1nc(N2CC2)nc(N2CC2)n1
T/C (endpoint: mean tumor weight (est.), dose: 0.06 mg/kg/injection, schedule: Q01DX011 (ip), vehicle: saline, higher = larger tumour): 78 % of control
T/C (endpoint: mean tumor weight (est.), dose: 0.12 mg/kg/injection, schedule: Q01DX011 (ip), vehicle: saline, higher = larger tumour): 67 % of control
T/C (endpoint: mean tumor weight (est.), dose: 0.25 mg/kg/injection, schedule: Q01DX011 (ip), vehicle: saline, higher = larger tumour): 37 % of control
T/C (endpoint: mean tumor weight (est.), dose: 0.5 mg/kg/injection, schedule: Q01DX011 (ip), vehicle: saline, higher = larger tumour): 37 % of control
T/C (endpoint: mean tumor weight, dose: 0.12 mg/kg/injection, schedule: Q01DX011 (ip), vehicle: saline, higher = larger tumour): 73 % of control
T/C (endpoint: mean tumor weight, dose: 0.25 mg/kg/injection, schedule: Q01DX011 (ip), vehicle: saline, higher = larger tumour): 73 % of control
T/C (endpoint: median survival time, dose: 0.06 mg/kg/injection, schedule: Q01DX011 (ip), vehicle: saline, higher = longer survival): 97 % of control
T/C (endpoint: median survival time, dose: 0.1 mg/kg/injection, schedule: Q01DX011 (ip), vehicle: saline, higher = longer survival): 116 % of control
T/C (endpoint: median survival time, dose: 0.12 mg/kg/injection, schedule: Q01DX011 (ip), vehicle: saline, higher = longer survival): 100 % of control and 106 % of control
T/C (endpoint: median survival time, dose: 0.2 mg/kg/injection, schedule: Q01DX011 (ip), vehicle: saline, higher = longer survival): 106 % of control
T/C (endpoint: median survival time, dose: 0.25 mg/kg/injection, schedule: Q01DX011 (ip), vehicle: saline, higher = longer survival): 110 % of control
T/C (endpoint: median survival time, dose: 0.4 mg/kg/injection, schedule: Q01DX011 (ip), vehicle: saline, higher = longer survival): 89 % of control
T/C (endpoint: median survival time, dose: 0.5 mg/kg/injection, schedule: Q01DX011 (ip), vehicle: saline, higher = longer survival): 122 % of control

COC1C(O)C(O)OC(CO)C1O (stereo unspecified)
T/C (endpoint: mean tumor weight (est.), dose: 500.0 mg/kg/injection, schedule: Q01DX011 (ip), vehicle: saline, higher = larger tumour): 83 % of control
T/C (endpoint: mean tumor weight (est.), dose: 1000.0 mg/kg/injection, schedule: Q01DX011 (ip), vehicle: saline, higher = larger tumour): 77 % of control
T/C (endpoint: median survival time, dose: 500.0 mg/kg/injection, schedule: Q01DX011 (ip), vehicle: saline, higher = longer survival): 106 % of control
T/C (endpoint: median survival time, dose: 1000.0 mg/kg/injection, schedule: Q01DX011 (ip), vehicle: saline, higher = longer survival): 112 % of control

Nc1nc(Cl)nc2c1ncn2C1OC(CO)C(O)C1O (stereo unspecified)
T/C [3]: 72 % of control
T/C (endpoint: mean tumor weight (est.), dose: 50.0 mg/kg/injection, schedule: Q01DX011 (ip), vehicle: saline with Tween-80, higher = larger tumour): 72 % of control
T/C (endpoint: mean tumor weight (est.), dose: 100.0 mg/kg/injection, schedule: Q01DX011 (ip), vehicle: saline with Tween-80, higher = larger tumour): 36 % of control
T/C [4]: 102 % of control
T/C (endpoint: median survival time, dose: 50.0 mg/kg/injection, schedule: Q01DX011 (ip), vehicle: saline with Tween-80, higher = longer survival): 93 % of control

Cc1ccc2c(ccc(C)[n+]2C)c1
T/C (endpoint: mean tumor weight (est.), dose: 37.5 mg/kg/injection, schedule: Q01DX011 (ip), vehicle: saline, higher = larger tumour): 86 % of control
T/C (endpoint: mean tumor weight (est.), dose: 75.0 mg/kg/injection, schedule: Q01DX011 (ip), vehicle: saline, higher = larger tumour): 86 % of control

Cc1c[n+]2c3ccccc3c3ccccc3c2s1
T/C (endpoint: mean tumor weight, dose: 10.0 mg/kg/injection, schedule: Q01DX011 (ip), vehicle: saline, higher = larger tumour): 112 % of control
T/C (endpoint: median survival time, dose: 10.0 mg/kg/injection, schedule: Q01DX011 (ip), vehicle: saline with Tween-80, higher = longer survival): 89 % of control

CC(=O)OCC1OC(n2ncc(=O)[nH]c2=O)C(OC(C)=O)C1OC(C)=O (stereo unspecified)
T/C (endpoint: mean tumor weight (est.), dose: 25.0 mg/kg/injection, schedule: Q01DX011 (ip), vehicle: water, higher = larger tumour): 89 % of control
T/C (endpoint: mean tumor weight (est.), dose: 50.0 mg/kg/injection, schedule: Q01DX011 (ip), vehicle: water, higher = larger tumour): 62 % of control
T/C (endpoint: mean tumor weight (est.), dose: 200.0 mg/kg/injection, schedule: Q01DX011 (ip), vehicle: water, higher = larger tumour): 75 % of control
T/C (endpoint: mean tumor weight (est.), dose: 400.0 mg/kg/injection, schedule: Q01DX011 (ip), vehicle: water, higher = larger tumour): 85 % of control
T/C (endpoint: mean tumor weight (est.), dose: 800.0 mg/kg/injection, schedule: Q01DX011 (ip), vehicle: water, higher = larger tumour): 40 % of control
T/C (endpoint: mean tumor weight (est.), dose: 1600.0 mg/kg/injection, schedule: Q01DX011 (ip), vehicle: water, higher = larger tumour): 56 % of control
T/C (endpoint: mean tumor weight, dose: 25.0 mg/kg/injection, schedule: Q01DX011 (ip), vehicle: Klucel (hydroxypropylcellulose) (HPC), higher = larger tumour): 78 % of control
T/C (endpoint: mean tumor weight, dose: 50.0 mg/kg/injection, schedule: Q01DX011 (ip), vehicle: Klucel (hydroxypropylcellulose) (HPC), higher = larger tumour): 71 % of control
T/C (endpoint: mean tumor weight, dose: 100.0 mg/kg/injection, schedule: Q01DX011 (ip), vehicle: Klucel (hydroxypropylcellulose) (HPC), higher = larger tumour): 65 % of control
T/C (endpoint: mean tumor weight, dose: 200.0 mg/kg/injection, schedule: Q01DX011 (ip), vehicle: Klucel (hydroxypropylcellulose) (HPC), higher = larger tumour): 68 % of control
T/C (endpoint: mean tumor weight, dose: 400.0 mg/kg/injection, schedule: Q01DX011 (ip), vehicle: Klucel (hydroxypropylcellulose) (HPC), higher = larger tumour): 93 % of control
T/C (endpoint: mean tumor weight, dose: 800.0 mg/kg/injection, schedule: Q01DX011 (ip), vehicle: Klucel (hydroxypropylcellulose) (HPC), higher = larger tumour): 37 % of control
T/C (endpoint: median survival time, dose: 25.0 mg/kg/injection, schedule: Q01DX011 (ip), vehicle: Klucel (hydroxypropylcellulose) (HPC), higher = longer survival): 110 % of control
T/C (endpoint: median survival time, dose: 25.0 mg/kg/injection, schedule: Q01DX011 (ip), vehicle: water, higher = longer survival): 92 % of control
T/C (endpoint: median survival time, dose: 50.0 mg/kg/injection, schedule: Q01DX011 (ip), vehicle: Klucel (hydroxypropylcellulose) (HPC), higher = longer survival): 94 % of control
T/C (endpoint: median survival time, dose: 50.0 mg/kg/injection, schedule: Q01DX011 (ip), vehicle: water, higher = longer survival): 103 % of control
T/C (endpoint: median survival time, dose: 100.0 mg/kg/injection, schedule: Q01DX011 (ip), vehicle: Klucel (hydroxypropylcellulose) (HPC), higher = longer survival): 112 % of control
T/C (endpoint: median survival time, dose: 200.0 mg/kg/injection, schedule: Q01DX011 (ip), vehicle: water, higher = longer survival): 98 % of control
T/C (endpoint: median survival time, dose: 400.0 mg/kg/injection, schedule: Q01DX011 (ip), vehicle: Klucel (hydroxypropylcellulose) (HPC), higher = longer survival): 104 % of control
T/C (endpoint: median survival time, dose: 400.0 mg/kg/injection, schedule: Q01DX011 (ip), vehicle: water, higher = longer survival): 121 % of control
T/C (endpoint: median survival time, dose: 800.0 mg/kg/injection, schedule: Q01DX011 (ip), vehicle: Klucel (hydroxypropylcellulose) (HPC), higher = longer survival): 124 % of control
T/C (endpoint: median survival time, dose: 800.0 mg/kg/injection, schedule: Q01DX011 (ip), vehicle: water, higher = longer survival): 88 % of control
T/C (endpoint: median survival time, dose: 1600.0 mg/kg/injection, schedule: Q01DX011 (ip), vehicle: water, higher = longer survival): 111 % of control

CNC(=S)N/N=C/CCC/C=N/NC(=S)NC
T/C (endpoint: mean tumor weight (est.), dose: 18.75 mg/kg/injection, schedule: Q01DX011 (ip), vehicle: saline with Tween-80, higher = larger tumour): 112 % of control
T/C (endpoint: mean tumor weight (est.), dose: 37.5 mg/kg/injection, schedule: Q01DX011 (ip), vehicle: saline with Tween-80, higher = larger tumour): 91 % of control
T/C (endpoint: mean tumor weight (est.), dose: 75.0 mg/kg/injection, schedule: Q01DX011 (ip), vehicle: saline with Tween-80, higher = larger tumour): 53 % of control
T/C (endpoint: median survival time, dose: 18.75 mg/kg/injection, schedule: Q01DX011 (ip), vehicle: saline with Tween-80, higher = longer survival): 90 % of control
T/C (endpoint: median survival time, dose: 37.5 mg/kg/injection, schedule: Q01DX011 (ip), vehicle: saline with Tween-80, higher = longer survival): 94 % of control
T/C (endpoint: median survival time, dose: 75.0 mg/kg/injection, schedule: Q01DX011 (ip), vehicle: saline with Tween-80, higher = longer survival): 102 % of control

CCCCOc1ccc(NC(N)=Nc2ccc(Cl)cc2)cc1
T/C (endpoint: mean tumor weight (est.), dose: 3.12 mg/kg/injection, schedule: Q01DX011 (ip), vehicle: saline with Tween-80, higher = larger tumour): 118 % of control
T/C (endpoint: mean tumor weight (est.), dose: 6.25 mg/kg/injection, schedule: Q01DX011 (ip), vehicle: saline with Tween-80, higher = larger tumour): 101 % of control
T/C (endpoint: mean tumor weight (est.), dose: 12.5 mg/kg/injection, schedule: Q01DX011 (ip), vehicle: saline with Tween-80, higher = larger tumour): 67 % of control
T/C [3]: 58 % of control
T/C [1]: 97 % of control
T/C [2]: 123 % of control
T/C (endpoint: median survival time, dose: 12.5 mg/kg/injection, schedule: Q01DX011 (ip), vehicle: saline with Tween-80, higher = longer survival): 102 % of control
T/C [4]: 104 % of control
